PMC4917279 (Journal of Medicinal Chemistry, 2016)

Key:
[1] = Exposure and tolerability after oral administration to mice; format: in vivo; conditions: 10–100 mg/kg po qd
[2] = molecular target: T1, ABL1(E255K)-phosphorylated (Homo sapiens, UniProt P00519, E255K); experiment: KINOMEscan; format: binding; conditions: read-out: %Ctrl @ 1000 nM
T1 construct: purchased DiscoveRx (KINOMEscan service)

ASK2 = molecular target: T2, ASK2 (Homo sapiens, UniProt O95382); experiment: KINOMEscan; format: binding; conditions: read-out: %Ctrl @ 1000 nM
T2 construct: purchased DiscoveRx KINOMEscan

CASK = molecular target: T3, CASK (Homo sapiens, UniProt O14936); experiment: KINOMEscan; format: binding; conditions: read-out: %Ctrl @ 1000 nM
T3 construct: purchased DiscoveRx KINOMEscan

CDK5 = molecular target: T4, CDK5 (Homo sapiens, UniProt Q00535); experiment: KINOMEscan; format: binding; conditions: read-out: %Ctrl @ 1000 nM
T4 construct: purchased DiscoveRx KINOMEscan

CLK4 = molecular target: T5, CLK4 (Homo sapiens, UniProt Q9HAZ1); experiment: KINOMEscan; format: binding; conditions: read-out: %Ctrl @ 1000 nM
T5 construct: purchased DiscoveRx KINOMEscan

CSNK1A1 = molecular target: T6, CSNK1A1 (Homo sapiens, UniProt P48729); experiment: KINOMEscan; format: binding; conditions: read-out: %Ctrl @ 1000 nM
T6 construct: purchased DiscoveRx KINOMEscan

CSNK1G1 = molecular target: T7, CSNK1G1 (Homo sapiens, UniProt Q9HCP0); experiment: KINOMEscan; format: binding; conditions: read-out: %Ctrl @ 1000 nM
T7 construct: purchased DiscoveRx KINOMEscan

DCAMKL2 = molecular target: T8, DCAMKL2 (Homo sapiens, UniProt Q8N568); experiment: KINOMEscan; format: binding; conditions: read-out: %Ctrl @ 1000 nM
T8 construct: purchased DiscoveRx KINOMEscan

DYRK2 = molecular target: T9, DYRK2 (Homo sapiens, UniProt Q92630); experiment: KINOMEscan; format: binding; conditions: read-out: %Ctrl @ 1000 nM
T9 construct: purchased DiscoveRx KINOMEscan

EGFR(G719C) = molecular target: T10, EGFR(G719C) (Homo sapiens, UniProt P00533, G719C); experiment: KINOMEscan; format: binding; conditions: read-out: %Ctrl @ 1000 nM
T10 construct: purchased DiscoveRx KINOMEscan

EPHB6 = molecular target: T11, EPHB6 (Homo sapiens, UniProt O15197); experiment: KINOMEscan; format: binding; conditions: read-out: %Ctrl @ 1000 nM
T11 construct: purchased DiscoveRx KINOMEscan

ERBB2 = molecular target: T12, ERBB2 (Homo sapiens, UniProt P04626); experiment: KINOMEscan; format: binding; conditions: read-out: %Ctrl @ 1000 nM
T12 construct: purchased DiscoveRx KINOMEscan

ERBB4 = molecular target: T13, ERBB4 (Homo sapiens, UniProt Q15303); experiment: KINOMEscan; format: binding; conditions: read-out: %Ctrl @ 1000 nM
T13 construct: purchased DiscoveRx KINOMEscan

FER = molecular target: T14, FER (Homo sapiens, UniProt P16591); experiment: KINOMEscan; format: binding; conditions: read-out: %Ctrl @ 1000 nM
T14 construct: purchased DiscoveRx KINOMEscan

FLT3(K663Q) = molecular target: T15, FLT3(K663Q) (Homo sapiens, UniProt P36888, K663Q); experiment: KINOMEscan; format: binding; conditions: read-out: %Ctrl @ 1000 nM
T15 construct: purchased DiscoveRx KINOMEscan

FLT3(N841I) = molecular target: T16, FLT3(N841I) (Homo sapiens, UniProt P36888, N841I); experiment: KINOMEscan; format: binding; conditions: read-out: %Ctrl @ 1000 nM
T16 construct: purchased DiscoveRx KINOMEscan

FLT4 = molecular target: T17, FLT4 (Homo sapiens, UniProt P35916); experiment: KINOMEscan; format: binding; conditions: read-out: %Ctrl @ 1000 nM
T17 construct: purchased DiscoveRx KINOMEscan

FYN = molecular target: T18, FYN (Homo sapiens, UniProt P06241); experiment: KINOMEscan; format: binding; conditions: read-out: %Ctrl @ 1000 nM
T18 construct: purchased DiscoveRx KINOMEscan

GRK1 = molecular target: T19, GRK1 (Homo sapiens, UniProt Q15835); experiment: KINOMEscan; format: binding; conditions: read-out: %Ctrl @ 1000 nM
T19 construct: purchased DiscoveRx KINOMEscan

GSK3B = molecular target: T20, GSK3B (Homo sapiens, UniProt P49841); experiment: KINOMEscan; format: binding; conditions: read-out: %Ctrl @ 1000 nM
T20 construct: purchased DiscoveRx KINOMEscan

IKK-alpha = molecular target: T21, IKK-alpha (Homo sapiens, UniProt O15111); experiment: KINOMEscan; format: binding; conditions: read-out: %Ctrl @ 1000 nM
T21 construct: purchased DiscoveRx KINOMEscan

IRAK1 = molecular target: T22, IRAK1 (Homo sapiens, UniProt P51617); experiment: KINOMEscan; format: binding; conditions: read-out: %Ctrl @ 1000 nM
T22 construct: purchased DiscoveRx KINOMEscan

[3] = molecular target: T23, JAK1(JH2domain-pseudokinase) (Homo sapiens, UniProt P23458); experiment: KINOMEscan; format: binding; conditions: read-out: %Ctrl @ 1000 nM
T23 construct: JAK1(JH2domain-pseudokinase); purchased DiscoveRx KINOMEscan

KIT(A829P) = molecular target: T24, KIT(A829P) (Homo sapiens, UniProt P10721, A829P); experiment: KINOMEscan; format: binding; conditions: read-out: %Ctrl @ 1000 nM
T24 construct: purchased DiscoveRx KINOMEscan

KIT-autoinhibited = molecular target: T25, KIT-autoinhibited (Homo sapiens, UniProt P10721); experiment: KINOMEscan; format: binding; conditions: read-out: %Ctrl @ 1000 nM
T25 construct: purchased DiscoveRx KINOMEscan

LKB1 = molecular target: T26, LKB1 (Homo sapiens, UniProt Q15831); experiment: KINOMEscan; format: binding; conditions: read-out: %Ctrl @ 1000 nM
T26 construct: purchased DiscoveRx KINOMEscan

MARK4 = molecular target: T27, MARK4 (Homo sapiens, UniProt Q96L34); experiment: KINOMEscan; format: binding; conditions: read-out: %Ctrl @ 1000 nM
T27 construct: purchased DiscoveRx KINOMEscan

MEK4 = molecular target: T28, MEK4 (Homo sapiens, UniProt P45985); experiment: KINOMEscan; format: binding; conditions: read-out: %Ctrl @ 1000 nM
T28 construct: purchased DiscoveRx KINOMEscan

MELK = molecular target: T29, MELK (Homo sapiens, UniProt Q14680); experiment: KINOMEscan; format: binding; conditions: read-out: %Ctrl @ 1000 nM
T29 construct: purchased DiscoveRx KINOMEscan

MLCK = molecular target: T30, MLCK (Homo sapiens, UniProt Q32MK0); experiment: KINOMEscan; format: binding; conditions: read-out: %Ctrl @ 1000 nM
T30 construct: purchased DiscoveRx KINOMEscan

MST2 = molecular target: T31, MST2 (Homo sapiens, UniProt Q13188); experiment: KINOMEscan; format: binding; conditions: read-out: %Ctrl @ 1000 nM
T31 construct: purchased DiscoveRx KINOMEscan

p38-gamma = molecular target: T32, p38-gamma (Homo sapiens, UniProt P53778); experiment: KINOMEscan; format: binding; conditions: read-out: %Ctrl @ 1000 nM
T32 construct: purchased DiscoveRx KINOMEscan

PCTK1 = molecular target: T33, PCTK1 (Homo sapiens, UniProt Q00536); experiment: KINOMEscan; format: binding; conditions: read-out: %Ctrl @ 1000 nM
T33 construct: purchased DiscoveRx KINOMEscan

PIK3C2B = molecular target: T34, PIK3C2B (Homo sapiens, UniProt O00750); experiment: KINOMEscan; format: binding; conditions: read-out: %Ctrl @ 1000 nM
T34 construct: purchased DiscoveRx KINOMEscan

PIK3C2G = molecular target: T35, PIK3C2G (Homo sapiens, UniProt O75747); experiment: KINOMEscan; format: binding; conditions: read-out: %Ctrl @ 1000 nM
T35 construct: purchased DiscoveRx KINOMEscan

PIK3CA = molecular target: T36, PIK3CA (Homo sapiens, UniProt P42336); experiment: KINOMEscan; format: binding; conditions: read-out: %Ctrl @ 1000 nM
T36 construct: purchased DiscoveRx KINOMEscan

PRKD1 = molecular target: T37, PRKD1 (Homo sapiens, UniProt Q15139); experiment: KINOMEscan; format: binding; conditions: read-out: %Ctrl @ 1000 nM
T37 construct: purchased DiscoveRx KINOMEscan

RET = molecular target: T38, RET (Homo sapiens, UniProt P07949); experiment: KINOMEscan; format: binding; conditions: read-out: %Ctrl @ 1000 nM
T38 construct: purchased DiscoveRx KINOMEscan

RET(V804M) = molecular target: T39, RET(V804M) (Homo sapiens, UniProt P07949, V804M); experiment: KINOMEscan; format: binding; conditions: read-out: %Ctrl @ 1000 nM
T39 construct: purchased DiscoveRx KINOMEscan

ROS1 = molecular target: T40, ROS1 (Homo sapiens, UniProt P08922); experiment: KINOMEscan; format: binding; conditions: read-out: %Ctrl @ 1000 nM
T40 construct: purchased DiscoveRx KINOMEscan

[4] = molecular target: T41, RSK1(Kin.Dom.2-C-terminal) (Homo sapiens, UniProt Q15418); experiment: KINOMEscan; format: binding; conditions: read-out: %Ctrl @ 1000 nM
T41 construct: RSK1(Kin.Dom.2-C-terminal); purchased DiscoveRx KINOMEscan

STK39 = molecular target: T42, STK39 (Homo sapiens, UniProt Q9UEW8); experiment: KINOMEscan; format: binding; conditions: read-out: %Ctrl @ 1000 nM
T42 construct: purchased DiscoveRx KINOMEscan

T14 sequence (P16591 whole entry): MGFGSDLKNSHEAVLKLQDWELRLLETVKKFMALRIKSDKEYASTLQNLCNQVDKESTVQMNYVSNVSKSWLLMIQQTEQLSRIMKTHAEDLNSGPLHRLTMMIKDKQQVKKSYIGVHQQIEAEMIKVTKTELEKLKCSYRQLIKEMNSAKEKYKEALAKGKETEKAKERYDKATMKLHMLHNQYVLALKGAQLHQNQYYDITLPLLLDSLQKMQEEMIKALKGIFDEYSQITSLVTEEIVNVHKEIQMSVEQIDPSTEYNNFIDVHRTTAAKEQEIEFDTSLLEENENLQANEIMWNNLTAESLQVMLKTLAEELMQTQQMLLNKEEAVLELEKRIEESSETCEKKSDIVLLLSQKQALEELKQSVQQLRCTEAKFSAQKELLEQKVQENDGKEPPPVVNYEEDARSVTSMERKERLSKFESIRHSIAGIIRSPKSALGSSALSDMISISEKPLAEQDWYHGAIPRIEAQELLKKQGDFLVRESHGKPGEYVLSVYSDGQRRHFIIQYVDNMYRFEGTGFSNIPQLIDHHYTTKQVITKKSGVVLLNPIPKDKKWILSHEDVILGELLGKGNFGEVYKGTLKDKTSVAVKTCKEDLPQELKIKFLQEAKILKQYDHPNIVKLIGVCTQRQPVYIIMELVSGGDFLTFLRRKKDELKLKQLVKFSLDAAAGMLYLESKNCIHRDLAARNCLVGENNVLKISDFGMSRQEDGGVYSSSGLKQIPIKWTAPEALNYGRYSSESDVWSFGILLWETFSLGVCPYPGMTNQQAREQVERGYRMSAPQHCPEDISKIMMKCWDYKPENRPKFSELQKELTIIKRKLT
T38 sequence (P07949 29-1114): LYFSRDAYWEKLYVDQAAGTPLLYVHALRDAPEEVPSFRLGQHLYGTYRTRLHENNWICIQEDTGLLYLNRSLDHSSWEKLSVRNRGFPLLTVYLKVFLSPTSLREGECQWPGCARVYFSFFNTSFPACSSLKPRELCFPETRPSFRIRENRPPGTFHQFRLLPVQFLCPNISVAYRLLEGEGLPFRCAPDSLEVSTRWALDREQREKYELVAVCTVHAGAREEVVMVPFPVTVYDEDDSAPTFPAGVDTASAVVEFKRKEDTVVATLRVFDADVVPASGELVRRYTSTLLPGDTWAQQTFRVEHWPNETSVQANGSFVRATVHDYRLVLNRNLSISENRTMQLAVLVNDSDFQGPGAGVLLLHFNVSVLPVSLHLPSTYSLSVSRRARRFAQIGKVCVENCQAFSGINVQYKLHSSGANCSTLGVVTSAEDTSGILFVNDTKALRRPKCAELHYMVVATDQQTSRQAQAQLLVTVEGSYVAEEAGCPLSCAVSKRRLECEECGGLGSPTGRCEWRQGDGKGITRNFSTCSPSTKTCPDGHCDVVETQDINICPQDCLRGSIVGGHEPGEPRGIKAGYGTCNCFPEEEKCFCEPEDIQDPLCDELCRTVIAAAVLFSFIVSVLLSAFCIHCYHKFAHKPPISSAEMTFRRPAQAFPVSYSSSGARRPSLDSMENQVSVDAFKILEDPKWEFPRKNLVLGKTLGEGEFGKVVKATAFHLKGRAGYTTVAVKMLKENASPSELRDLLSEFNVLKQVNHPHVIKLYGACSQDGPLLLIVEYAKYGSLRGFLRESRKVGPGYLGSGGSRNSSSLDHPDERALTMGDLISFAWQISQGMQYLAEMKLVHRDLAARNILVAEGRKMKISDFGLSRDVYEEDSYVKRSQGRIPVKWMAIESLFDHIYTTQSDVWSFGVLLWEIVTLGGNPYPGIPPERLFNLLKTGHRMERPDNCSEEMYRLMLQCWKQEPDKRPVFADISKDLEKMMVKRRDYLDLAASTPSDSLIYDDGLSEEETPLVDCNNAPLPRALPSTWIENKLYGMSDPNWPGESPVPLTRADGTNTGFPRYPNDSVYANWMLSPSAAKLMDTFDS
T3 sequence (O14936 whole entry): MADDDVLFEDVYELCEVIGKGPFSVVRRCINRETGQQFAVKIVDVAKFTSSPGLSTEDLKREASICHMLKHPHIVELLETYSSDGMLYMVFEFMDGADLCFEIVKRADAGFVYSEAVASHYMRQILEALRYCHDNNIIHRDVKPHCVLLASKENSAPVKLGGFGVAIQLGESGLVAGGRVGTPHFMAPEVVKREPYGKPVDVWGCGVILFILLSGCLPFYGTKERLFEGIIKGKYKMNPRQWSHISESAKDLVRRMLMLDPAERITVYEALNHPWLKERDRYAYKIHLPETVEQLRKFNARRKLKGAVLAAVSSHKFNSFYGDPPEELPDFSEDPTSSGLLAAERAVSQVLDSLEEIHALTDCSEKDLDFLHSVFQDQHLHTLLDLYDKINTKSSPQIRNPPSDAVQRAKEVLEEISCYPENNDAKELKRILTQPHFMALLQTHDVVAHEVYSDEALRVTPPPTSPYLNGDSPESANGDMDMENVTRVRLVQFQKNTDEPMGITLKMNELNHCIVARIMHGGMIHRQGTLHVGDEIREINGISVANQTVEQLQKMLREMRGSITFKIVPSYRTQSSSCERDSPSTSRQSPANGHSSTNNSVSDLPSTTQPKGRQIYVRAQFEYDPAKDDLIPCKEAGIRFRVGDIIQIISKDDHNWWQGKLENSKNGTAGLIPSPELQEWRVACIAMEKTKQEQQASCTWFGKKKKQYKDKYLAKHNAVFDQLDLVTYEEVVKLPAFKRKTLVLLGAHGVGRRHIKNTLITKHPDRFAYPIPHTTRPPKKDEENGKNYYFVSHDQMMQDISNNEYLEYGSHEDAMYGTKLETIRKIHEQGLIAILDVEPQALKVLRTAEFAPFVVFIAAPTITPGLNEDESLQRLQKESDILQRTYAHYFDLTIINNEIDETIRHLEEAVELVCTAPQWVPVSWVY
T25 sequence (P10721 26-976): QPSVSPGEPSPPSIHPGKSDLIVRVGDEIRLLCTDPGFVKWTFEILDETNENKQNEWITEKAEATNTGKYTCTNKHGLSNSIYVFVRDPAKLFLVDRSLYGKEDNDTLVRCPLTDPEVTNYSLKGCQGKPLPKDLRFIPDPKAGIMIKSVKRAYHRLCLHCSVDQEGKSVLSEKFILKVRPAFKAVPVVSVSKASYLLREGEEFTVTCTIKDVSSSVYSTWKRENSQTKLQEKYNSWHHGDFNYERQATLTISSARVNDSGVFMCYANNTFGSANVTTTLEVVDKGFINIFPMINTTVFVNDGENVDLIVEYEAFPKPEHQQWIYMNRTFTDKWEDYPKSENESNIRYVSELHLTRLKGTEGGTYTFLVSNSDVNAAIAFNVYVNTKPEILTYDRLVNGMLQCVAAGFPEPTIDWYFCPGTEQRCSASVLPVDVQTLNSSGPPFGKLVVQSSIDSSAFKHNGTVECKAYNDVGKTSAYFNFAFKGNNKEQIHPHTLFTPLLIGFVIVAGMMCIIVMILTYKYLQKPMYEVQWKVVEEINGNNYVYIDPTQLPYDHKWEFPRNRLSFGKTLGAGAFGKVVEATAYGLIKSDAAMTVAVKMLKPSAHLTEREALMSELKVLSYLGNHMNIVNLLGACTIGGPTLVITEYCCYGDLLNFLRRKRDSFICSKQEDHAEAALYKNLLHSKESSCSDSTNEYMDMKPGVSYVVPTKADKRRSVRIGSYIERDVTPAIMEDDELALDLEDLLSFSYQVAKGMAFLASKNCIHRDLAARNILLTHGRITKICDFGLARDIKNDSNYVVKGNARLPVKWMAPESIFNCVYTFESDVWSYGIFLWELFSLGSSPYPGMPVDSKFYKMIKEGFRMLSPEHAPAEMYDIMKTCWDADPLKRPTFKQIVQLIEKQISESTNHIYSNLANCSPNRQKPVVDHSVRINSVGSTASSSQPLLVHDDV
T28 sequence (P45985 whole entry): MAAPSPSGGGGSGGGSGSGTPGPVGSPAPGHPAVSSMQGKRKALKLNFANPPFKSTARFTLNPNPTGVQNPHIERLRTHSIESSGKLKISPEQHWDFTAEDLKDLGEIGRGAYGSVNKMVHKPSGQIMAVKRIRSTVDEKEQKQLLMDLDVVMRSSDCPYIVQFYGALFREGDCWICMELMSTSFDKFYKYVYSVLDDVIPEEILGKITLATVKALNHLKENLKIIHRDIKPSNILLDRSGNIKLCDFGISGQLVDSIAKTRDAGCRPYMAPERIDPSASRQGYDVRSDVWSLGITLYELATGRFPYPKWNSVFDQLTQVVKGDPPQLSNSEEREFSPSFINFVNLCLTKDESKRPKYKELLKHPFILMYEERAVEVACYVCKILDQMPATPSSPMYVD
T20 sequence (P49841 whole entry): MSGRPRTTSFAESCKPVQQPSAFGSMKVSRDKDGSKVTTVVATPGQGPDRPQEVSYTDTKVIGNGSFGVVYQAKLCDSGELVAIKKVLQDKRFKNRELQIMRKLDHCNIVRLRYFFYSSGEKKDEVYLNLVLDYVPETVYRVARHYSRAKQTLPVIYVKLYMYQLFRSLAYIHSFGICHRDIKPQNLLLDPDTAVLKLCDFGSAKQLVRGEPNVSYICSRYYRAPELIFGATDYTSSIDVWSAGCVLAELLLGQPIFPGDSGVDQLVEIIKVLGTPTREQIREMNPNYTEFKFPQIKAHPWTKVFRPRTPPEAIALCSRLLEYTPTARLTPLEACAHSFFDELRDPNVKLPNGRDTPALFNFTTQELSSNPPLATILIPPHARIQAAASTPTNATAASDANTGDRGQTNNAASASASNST
T24 sequence (P10721 26-976 A829P): as the sequence (P10721 26-976) above, with A804P counted along it
T4 sequence (Q00535 whole entry): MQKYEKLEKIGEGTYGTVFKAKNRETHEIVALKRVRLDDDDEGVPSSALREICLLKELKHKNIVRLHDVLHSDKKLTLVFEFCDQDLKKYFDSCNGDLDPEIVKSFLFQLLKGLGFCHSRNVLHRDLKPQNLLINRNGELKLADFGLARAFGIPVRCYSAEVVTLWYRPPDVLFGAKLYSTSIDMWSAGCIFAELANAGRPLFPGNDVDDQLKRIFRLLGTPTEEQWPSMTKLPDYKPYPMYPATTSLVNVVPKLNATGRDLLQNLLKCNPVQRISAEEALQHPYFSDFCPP
T39 sequence (P07949 29-1114 V804M): as the sequence (P07949 29-1114) above, with V776M counted along it

## CCN(C(=O)CO)[C@H]1CN(/C(=N\C#N)Nc2cccc(OC(F)F)c2)N=C1c1ccc(Cl)c(Cl)c1 [(S)-4]
[1]
  Tolerability: well tolerated
[2]
  remaining binding at 1 µM: 85%
ASK2
  remaining binding at 1 µM: 93%
CASK
  remaining binding at 1 µM: 61%
CDK5
  remaining binding at 1 µM: 82%
CLK4
  remaining binding at 1 µM: 94%
CSNK1A1
  remaining binding at 1 µM: 63%
CSNK1G1
  remaining binding at 1 µM: 84%
DCAMKL2
  remaining binding at 1 µM: 93%
DYRK2
  remaining binding at 1 µM: 100%
EGFR(G719C)
  remaining binding at 1 µM: 86%
EPHB6
  remaining binding at 1 µM: 100%
ERBB2
  remaining binding at 1 µM: 87%
ERBB4
  remaining binding at 1 µM: 93%
FER
  remaining binding at 1 µM: 68%
FLT3(K663Q)
  remaining binding at 1 µM: 100%
FLT3(N841I)
  remaining binding at 1 µM: 95%
FLT4
  remaining binding at 1 µM: 87%
FYN
  remaining binding at 1 µM: 71%
GRK1
  remaining binding at 1 µM: 93%
GSK3B
  remaining binding at 1 µM: 88%
IKK-alpha
  remaining binding at 1 µM: 92%
IRAK1
  remaining binding at 1 µM: 92%
[3]
  remaining binding at 1 µM: 100%
KIT(A829P)
  remaining binding at 1 µM: 98%
KIT-autoinhibited
  remaining binding at 1 µM: 90%
LKB1
  remaining binding at 1 µM: 83%
MARK4
  remaining binding at 1 µM: 75%
MEK4
  remaining binding at 1 µM: 100%
MELK
  remaining binding at 1 µM: 99%
MLCK
  remaining binding at 1 µM: 100%
MST2
  remaining binding at 1 µM: 88%
p38-gamma
  remaining binding at 1 µM: 70%
PCTK1
  remaining binding at 1 µM: 98%
PIK3C2B
  remaining binding at 1 µM: 100%
PIK3C2G
  remaining binding at 1 µM: 77%
PIK3CA
  remaining binding at 1 µM: 97%
PRKD1
  remaining binding at 1 µM: 86%
RET
  remaining binding at 1 µM: 91%
RET(V804M)
  remaining binding at 1 µM: 100%
ROS1
  remaining binding at 1 µM: 68%
[4]
  remaining binding at 1 µM: 100%
STK39
  remaining binding at 1 µM: 77%
